Experimental data from patent publication US6693112B2, “Compounds for enhancing chemotherapy” (The Pennsylvania State University, priority 2000, dated 2004).

Legend:
MCF-7/VP cells = experiment: Accumulation of [3H]Taxol and [3H]vinblastine by MCF-7/VP cells; type: cell-based
MCF-7 cells [1] = experiment: Drug cytotoxicity with or without 10 μM modulator, MCF-7 cells (Table V); conditions: MCF-7 cells; IC50 in the absence / in the presence of 10 μM of verapamil or Compound 4008
MCF7/VP cells = experiment: Drug cytotoxicity with or without 10 μM modulator, MCF7/VP (MRP1) cells (Table V)
A498 cells = experiment: Drug cytotoxicity with or without 10 μM modulator, A498 cells (Table V); conditions: A498 cells; IC50 in the absence / in the presence of 10 μM of verapamil or Compound 4008
P-gp = P-gp (Homo sapiens, UniProt P08183)
Chain of P-gp (P08183 whole entry): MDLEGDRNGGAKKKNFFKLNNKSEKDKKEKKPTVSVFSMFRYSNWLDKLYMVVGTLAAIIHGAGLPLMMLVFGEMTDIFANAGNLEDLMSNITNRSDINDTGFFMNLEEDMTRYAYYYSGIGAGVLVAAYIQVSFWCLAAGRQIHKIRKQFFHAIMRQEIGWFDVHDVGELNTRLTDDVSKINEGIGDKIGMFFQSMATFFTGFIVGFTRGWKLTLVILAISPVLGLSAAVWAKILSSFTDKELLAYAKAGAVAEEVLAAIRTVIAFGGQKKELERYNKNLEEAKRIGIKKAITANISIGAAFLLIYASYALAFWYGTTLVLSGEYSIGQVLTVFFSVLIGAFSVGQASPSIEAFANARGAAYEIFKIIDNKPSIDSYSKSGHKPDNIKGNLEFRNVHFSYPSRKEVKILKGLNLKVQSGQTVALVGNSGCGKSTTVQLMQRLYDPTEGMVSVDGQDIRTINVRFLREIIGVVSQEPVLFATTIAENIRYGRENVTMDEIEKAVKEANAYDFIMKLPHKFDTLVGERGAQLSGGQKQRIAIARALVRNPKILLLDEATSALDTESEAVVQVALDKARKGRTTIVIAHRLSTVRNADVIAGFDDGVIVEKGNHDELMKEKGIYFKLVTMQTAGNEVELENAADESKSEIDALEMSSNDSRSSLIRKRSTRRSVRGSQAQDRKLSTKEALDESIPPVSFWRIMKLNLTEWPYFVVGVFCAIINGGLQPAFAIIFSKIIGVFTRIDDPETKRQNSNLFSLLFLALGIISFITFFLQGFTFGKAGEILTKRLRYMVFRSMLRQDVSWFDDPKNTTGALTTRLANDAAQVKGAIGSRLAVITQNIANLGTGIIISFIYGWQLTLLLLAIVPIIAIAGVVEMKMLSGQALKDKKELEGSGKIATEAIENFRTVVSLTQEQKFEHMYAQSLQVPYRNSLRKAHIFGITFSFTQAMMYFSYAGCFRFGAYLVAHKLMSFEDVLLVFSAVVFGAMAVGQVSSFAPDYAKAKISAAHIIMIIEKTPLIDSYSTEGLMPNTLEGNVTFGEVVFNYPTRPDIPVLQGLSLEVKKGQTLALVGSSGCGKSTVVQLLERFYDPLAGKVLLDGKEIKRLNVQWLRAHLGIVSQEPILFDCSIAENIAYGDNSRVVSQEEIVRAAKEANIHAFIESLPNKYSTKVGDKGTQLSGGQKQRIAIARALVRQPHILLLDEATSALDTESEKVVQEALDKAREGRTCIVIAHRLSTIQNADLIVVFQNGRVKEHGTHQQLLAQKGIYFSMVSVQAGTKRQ
Experimental: The percentage of cells that died following treatment was calculated as a percent decrease in sulforhodamine B binding as compared with control cultures. […] Inhibition of P-gp was manifested as the ability of the compound to enhance the cytotoxicity of vinblastine toward NCI/ADR cells. To assess the toxicity of the compounds toward drug-sensitive cells, the effects of the compounds on the growth of drug-sensitive MCF-7 cells were determined using the same methods.
The P-gp antagonism score was calculated by dividing the percent survival of NCI/ADR cells treated with the compound alone by the percent survival of NCI/ADR cells treated with the compound in the presence of 50 nM vinblastine. Chemosensitization is indicated by a score of more than 1.0.
The P-gp antagonism score was calculated by dividing the percent survival of NCI/ADR cells treated with […] by the percent survival of NCI/ADR cells treated with the compound in the presence of 50 nM vinblastine.

NCI/ADR cells [2] = experiment: Accumulation of [3H]Taxol and [3H]vinblastine by NCI/ADR cells; type: cell-based
P388/ADR cells = experiment: Drug cytotoxicity with or without 10 μM modulator, P388/ADR cells (Table V); conditions: P388/ADR cells; IC50 in the absence / in the presence of 10 μM of verapamil or Compound 4008
MCF-7 cells [3] = experiment: Accumulation of [3H]Taxol and [3H]vinblastine by MCF-7 cells; type: cell-based, human
MCF-7 cells [4] = experiment: Cytotoxicity toward drug-sensitive MCF-7 cells (sulforhodamine B binding assay); type: cell-based, human; conditions: MCF-7 cells; concentration required to kill 50% of the cells
NCI/ADR cells [5] = experiment: Drug cytotoxicity with or without 10 μM modulator, NCI/ADR cells (Table V); conditions: NCI/ADR cells; IC50 in the absence / in the presence of 10 μM of verapamil or Compound 4008
T24 cells = experiment: Drug cytotoxicity with or without 10 μM modulator, T24 cells (Table V); conditions: T24 cells; IC50 in the absence / in the presence of 10 μM of verapamil or Compound 4008
[6] = MCF7/VP (MRP1) cells, IC50 in the absence / in the presence of 10 μM of verapamil or Compound 4008

O=C(Cc1ccccc1)Nc1c2c(nc3ccccc13)N(Cc1ccccc1)CC2 [Compound 4008]
accumulation of [3H]Taxol and [3H]vinblastine (MCF-7/VP cells): without affecting the accumulation | RI, 5-Fluorouracil (MCF-7 cells [1]): 1.6 | RI, Cisplatin (MCF-7 cells [1]): 0.8 | RI, Taxol (MCF-7 cells [1]): 0.9 | RI, Vinblastine (MCF-7 cells [1]): 1.8 | RI, Vincristine (MCF-7 cells [1]): 0.9 | RI, 5-Fluorouracil (MCF7/VP cells; [6]): 0.7 | RI, Cisplatin (MCF7/VP cells; [6]): 0.8 | RI, Taxol (MCF7/VP cells; [6]): 0.8 | RI, Vinblastine (MCF7/VP cells; [6]): 1.3 | RI, Vincristine (MCF7/VP cells; [6]): 1.0 | enhancement of the toxicity of vincristine toward MCF7/VP cells (MCF7/VP cells; MRP1-overexpressing MCF7/VP cells): no effect | RI, 5-Fluorouracil (A498 cells): 0.7 | RI, Cisplatin (A498 cells): 0.8 | RI, Taxol (A498 cells): 6.8 | RI, Vinblastine (A498 cells): 18 | RI, Vincristine (A498 cells): 18 | Maximum Antagonism (P-gp): 17.1 (3.1) | Maximum Antagonism (conc. μg/ml) (P-gp): 17.1 (3.1) μg/ml | therapeutic index (P-gp): at least 10 fold | accumulation of [3H]Taxol and [3H]vinblastine (NCI/ADR cells [2]): increases the accumulation | RI, 5-Fluorouracil (P388/ADR cells): 0.7 | RI, Cisplatin (P388/ADR cells): 1.9 | RI, Doxorubicin (P388/ADR cells): 200 | RI, Taxol (P388/ADR cells): 202 | RI, Vinblastine (P388/ADR cells): 63 | RI, Vincristine (P388/ADR cells): 30 | accumulation of [3H]Taxol and [3H]vinblastine (MCF-7 cells [3]): without affecting the accumulation | Toxicity IC50 (MCF-7 cells [4]): 5 µg/mL | RI, 5-Fluorouracil (NCI/ADR cells [5]): 1.0 | RI, Cisplatin (NCI/ADR cells [5]): 1.2 | RI, Taxol (NCI/ADR cells [5]): 70 | RI, Vinblastine (NCI/ADR cells [5]): 35 | RI, Vincristine (NCI/ADR cells [5]): 18 | RI, 5-Fluorouracil (T24 cells): 2.6 | RI, Cisplatin (T24 cells): 1.1 | RI, Taxol (T24 cells): 1.2 | RI, Vinblastine (T24 cells): 3.8 | RI, Vincristine (T24 cells): 1.5
